Where a name gives a salt, the structure may show the parent alone. Read-outs that look alike come from different tables or passages of the source.
Experiments:
HCV [1] = conditions: patients chronically infected with HCV, IFN as sole treatment; cited from earlier work
HCV [2] = experiment: Anti-HCV activity in Huh-Luc/neo cell line, luciferase activity after 3-day treatment; assay type: cell-based, Hepatitis C virus; conditions: Huh-Luc/neo cells; for EC50: given as a bound only, read-out: Antiviral Activities (EC50, μM) HCV
MT-2 cells = experiment: Cell cytotoxicity assay on MT-2 cells; assay type: cell-based; conditions: read-out: Cytotoxity (ID50, μM) MT-2
Procedure, shortened: (§1)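 MT-2 and CEM cytotoxicity determined per previously reported procedures. HepG2 cells seeded at 10^4 cells/ml in MEME + 10% FBS, compound added on day 2 for 3 further days at 37° C. Viable layer stained with methylene blue, solubilized in 1% sarcosyl, A595 read.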

HIV = experiment: In vitro antiviral assay for HIV; assay type: cell-based, human immunodeficiency virus; conditions: (T) after a value means toxic
Procedure, shortened: (§2)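 Performed according to previously reported procedures for each virus; no further conditions are given for the HSV-2, CMV, HIV or EBV assays.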

HBV = experiment: In vitro antiviral assay for HBV (Table 1); assay type: cell-based, Hepatitis B virus; conditions: read-out: Antiviral Activities (EC50, μM) HBV
CEM cells = experiment: Cell cytotoxicity assay on CEM cells; assay type: cell-based; conditions: read-out: Cytotoxity (ID50, μM) CEM
Procedure, shortened: as §1

HSV-1 = experiment: In vitro antiviral assay for HSV-1; assay type: cell-based, Herpes Simplex Virus 1
Procedure, shortened: as §2

HSV-2 = experiment: In vitro antiviral assay for HSV-2; assay type: cell-based, Herpes Simplex Virus 2
Procedure, shortened: as §2

CMV = experiment: In vitro antiviral assay for CMV; assay type: cell-based, cytomegalovirus
Procedure: The antiviral assays for HBV, (Doong et al., 1991, Proc. Natl. Acad. Sci. U.S.A. 88:8495-8499) HSV-1, (Bastow et al., 1983, Antimicrob. Agents Chemother. 23: 914-917) HSV-2, (Bastow et al., 1983, Antimicrob. Agents Chemother. 23:914-917) EBV, (Yao et al., 1993, Antimicrob. Agents Chemother. 37:1420-1425), CMV (Andreoni et al., 2002, J. Med. Virol. 67:33-40) and HIV (Mellors et al., 1992, Mol. Pharmacol. 41: 446-451) were performed according to the previously reported procedures. Anti-HCV activities were tested in Huh-Luc/neo cell line. Cells were seeded into 48-well plates and grown until confluent. Different concentrations of drugs were added into media (DMEM, 10% dFBS) and incubated for 3 days. At the end of 3-day treatment, medium were removed and 50 μl of Passive lysis buffer (Promega) were added. Cell lysate was shaken at room temperature for 15 min. 30 μl/well of cell lysate was transferred to another 96-well plate, 100 μl/well of luciferase activity assay substrate was added into plate and read by a luminometer (Amersham) immediately.

EBV = experiment: In vitro antiviral assay for EBV; assay type: cell-based, Epstein-Barr Virus
Procedure, shortened: as §2

HCV [3] = conditions: ribavirin alone; cited from earlier work
[4] = Cell cytotoxicity assay on MT-2 cells; assay type: cell-based; conditions: human, read-out: Cytotoxity (ID50, μM) MT-2
Procedure, shortened: as §1

[5] = Cell cytotoxicity assay on CEM cells; assay type: cell-based; conditions: human, read-out: Cytotoxity (ID50, μM) CEM
Procedure, shortened: as §1

[6] = in vitro, read-out: Antiviral Activities (EC50, μM) HIV
[7] = in vitro, read-out: Antiviral Activities (EC50, μM) HSV-1
[8] = in vitro, read-out: Antiviral Activities (EC50, μM) HSV-2
[9] = in vitro, read-out: Antiviral Activities (EC50, μM) EBV

Compound | IC50 (MT-2 cells) [µM] | EC50 (HIV; [6]) [µM] | EC50 (HBV; in vitro) [µM] | IC50 (CEM cells) [µM] | EC50 (HSV-1; [7]) [µM] | EC50 (HSV-2; [8]) [µM] | EC50 (EBV; [9]) [µM] | also measured
Interferon |  |  |  |  |  |  |  | patients with a sustained response (HCV [1]): 8%-9%; HCV column: concentration at which the percent of inhibition was seen (HCV [2]; Interferon control): 10 u/ml; HCV percent of inhibition (HCV [2]; at 10 u/ml): (90) %
O=C(O)c1cc2c(Br)cc3c(c2c(-c2ccc4c(c2)OCO4)c1CO)OCO3 [Compound 45, 9-Benzo[1,3]dioxol-5-yl-5-bromo-8-hydroxymethyl-naphtho[1,2-d][1.3]dioxole-7-carboxylic acid monosodium salt] | 50 | > 50 | > 10 | 46.5 | > 50 | > 50 | > 20 | EC50 (CMV; in vitro, read-out: Antiviral Activities (EC50, μM) CMV): > 20 µM
O=c1[nH][nH]c(=O)c2c(-c3ccc4c(c3)OCO4)c3c4c(cc(Br)c3cc12)OCO4 [Compound 42, 11-Benzo[1,3]dioxol-5-yl-5-bromo-8,9-dihydro-[1,3]dioxa-8,9-diaza-cyclopenta[a]anthracene-7,10-dione] | > 100 |  | > 20 | 28 | 16 | > 20 | > 20 | HCV percent of inhibition (HCV [2]; at 3 μM, 3 days): 45%
O=C1c2cc3ccc4c(c3c(-c3ccc5c(c3)OCO5)c2C(=O)N1CCCOCc1ccccc1)OCO4 [Compound 10, 10-Benzo[1,3]dioxol-5-yl-8-(3-benzyloxy-propyl)-1,3-dioxa-8-aza-dicycloplenta[a,g]naphthalene-7,9-dione] | > 100 | > 100 | > 10 | > 100 | > 50 | > 50 | > 5 | HCV percent of inhibition (HCV [2]; at 10 μM, 3 days): 62%
O=C1NCc2cc3ccc4c(c3c(-c3ccc5c(c3)OCO5)c21)OCO4 [Compound 16, 10-Benzo[1,3]dioxol-5-yl-7,8-dihydro-13-dioxa-8-aza-dicyclopenta[a,g]naphthalen-9-one] | > 100 | > 100 | > 10 | 90 | > 50 | > 50 | > 20 | EC50 (HCV [2]; 3 days): > 10 µM
NC(=O)c1ncn([C@@H]2O[C@H](CO)[C@@H](O)[C@H]2O)n1 [Ribavirin, 1-beta-D-ribofuranosyl-1-1,2,4-triazole-3-carboxamide] |  |  |  |  |  |  |  | patients in whom serum amino transferase levels are reduced to normal (HCV [3]): 40%
O=C1c2cc3ccc4c(c3c(-c3ccc5c(c3)OCO5)c2C(=O)N1CCCO)OCO4 [Compound 29, 10-Benzo[1,3]dioxol-5-yl-8-(3-hydroxy-propyl)-1,3-dioxa-8-aza-dicyclopenta[a,g]naphthalene-7,9-dione] |  |  |  |  |  |  |  | IC50 [4]: 22 µM; EC50 (HIV; Human immunodeficiency virus 1, read-out: Antiviral Activities (EC50, μM) HIV, in vitro): > 22 µM; EC50 (HBV; Hepatitis B virus): > 5 µM; melting point: 150 to 152 °C; IC50 [5]: 27 µM; EC50 (HSV-1; Human alphaherpesvirus 1, read-out: Antiviral Activities (EC50, μM) HSV-1): > 30 µM; EC50 (HSV-2; Human alphaherpesvirus 2, read-out: Antiviral Activities (EC50, μM) HSV-2): > 30 µM; EC50 (HCV [2]; Hepatitis C virus, 72 h, 3 days): > 10 µM; EC50 (CMV; Human betaherpesvirus 5, read-out: Antiviral Activities (EC50, μM) CMV): 8.1 µM; EC50 (EBV; human gammaherpesvirus 4, read-out: Antiviral Activities (EC50, μM) EBV): > 5 µM
